Earlier results on 46 compounds are cited in PMC4360375 (Journal of Medicinal Chemistry, 2015).

The structures appear in SMILES notation.

One data set has as its system GABA uptake, rat synaptosome. As to conditions: literature data set; ref 10.1016/S0968-0896(01)00148-1; cited from earlier work.
As usually defined, the pIC50 is the negative decadic logarithm of the IC50, by convention in mol/L. As to `O=C(O)[C@@H]1CCCN(CCO/N=C2\C[C@H](c3ccccc3)c3ccccc32)C1` [An_2001/6_28, O(\N=C\1/C[C@@H](c2c/1cccc2)c1ccccc1)CCN1C[C@@H](CCC1)C(O)=O], the pIC50 was 5.852.
Consider `O=C(O)[C@@H]1CCCN(CCO/N=C(/Cc2ccccc2F)c2ccccc2F)C1` [An_2001/6_18, Fc1ccccc1C\C(=N\OCCN1C[C@@H](CCC1)C(O)=O)\c1ccccc1F], for which the pIC50 is 7.097.
`O=C(O)[C@@H]1CCCN(CCOc2ccccc2)C1` [An_2001/6_32, O(CCN1C[C@@H](CCC1)C(O)=O)c1ccccc1]: the pIC50 is given as 5.046.
Consider `O=C(O)[C@@H]1CCCN(CCON=C(Cc2ccccc2)Cc2ccccc2)C1` [An_2001/6_19, O(\N=C(\Cc1ccccc1)/Cc1ccccc1)CCN1C[C@@H](CCC1)C(O)=O], for which the pIC50 is reported as 5.987.
Consider `CC(C)C/C(=N/OCCN1CCC[C@@H](C(=O)O)C1)c1ccccc1` [An_2001/6_15, O(\N=C(\CC(C)C)/c1ccccc1)CCN1C[C@@H](CCC1)C(O)=O], for which the pIC50 was 6.553.
As to `O=C(O)[C@@H]1CCCN(CCO/N=C2\c3ccccc3CC[C@@H]2c2ccccc2)C1` [An_2001/6_27, O(\N=C\1/c2c(CC[C@@H]/1c1ccccc1)cccc2)CCN1C[C@@H](CCC1)C(O)=O], the pIC50 was 6.058.
With `CC(C)CN(CCOCCN1CCC[C@@H](C(=O)O)C1)c1ccccc1` [An_2001/6_44, O(CCN1C[C@@H](CCC1)C(O)=O)CCN(CC(C)C)c1ccccc1], the pIC50 is listed as 6.553.

Still in this data set, the particulars now being: literature data set; ref 10.1021/jm00064a005; cited from earlier work.
Take `O=C(O)C1=CCCN(CC/C=C(\c2ccccc2)c2cccs2)C1` [An_1993_36, s1cccc1/C(=C/CCN1CC(=CCC1)C(O)=O)/c1ccccc1]: the pIC50 is on record as 6.577.
`Cn1cccc1/C(=C/CCN1CCC=C(C(=O)O)C1)c1ccccc1` [An_1993_49, OC(=O)C=1CN(CCC=1)CC\C=C(/c1ccccc1)\c1n(ccc1)C]: the pIC50 is listed as 6.886.
Take `Cc1cc(Cl)ccc1/C(=C\CCN1CCC=C(C(=O)O)C1)c1sccc1C` [An_1993_45, Clc1cc(C)c(cc1)\C(=C/CCN1CC(=CCC1)C(O)=O)\c1sccc1C]: the pIC50 was 6.523.
Consider `Cc1ccccc1/C(=C\CCN1CCC[C@@H](C(=O)O)C1)c1sccc1C` [An_1993_31, s1ccc(C)c1/C(=C/CCN1C[C@@H](CCC1)C(O)=O)/c1ccccc1C], for which the pIC50 was 7.097.
On to `Cc1ccsc1/C(=C/CCN1CCC[C@H](C(=O)O)C1)c1cccs1` [An_1993_41, s1ccc(C)c1\C(=C\CCN1C[C@H](CCC1)C(O)=O)\c1sccc1], for which the pIC50 is on record as 6.161.
`Cc1ccccc1/C(=C\CCN1CCC[C@H](C(=O)O)C1)c1sccc1C` [An_1993_32, s1ccc(C)c1/C(=C/CCN1C[C@H](CCC1)C(O)=O)/c1ccccc1C]: the pIC50 is on record as 6.42.
Turning to `Cc1ccccc1/C(=C\CCN1CCC=C(C(=O)O)C1)c1sccc1C` [An_1993_33, s1ccc(C)c1/C(=C/CCN1CC(=CCC1)C(O)=O)/c1ccccc1C], the pIC50 is given as 6.886.

Still in this data set, the particulars now being: literature data set; ref 10.1021/jm980492e; cited from earlier work.
As to `O=C(O)[C@@H]1CCCN(CCCCC=C(c2ccccc2)c2ccccc2)C1` [An_1999/4_(R)-27, OC(=O)[C@@H]1CCCN(C1)CCCC\C=C(\c1ccccc1)/c1ccccc1], the negative logarithm of the IC50 (pIC50) is 5.646.
Regarding `O=C(O)[C@@H]1CCCN(CCOCCOCCN(c2ccccc2)c2ccccc2)C1` [An_1999/4_(R)-20, O(CCN1C[C@@H](CCC1)C(O)=O)CCOCCN(c1ccccc1)c1ccccc1], the pIC50 is listed as 5.046.
As to `O=C(O)[C@@H]1CCCN(CCCCCCCCN(c2ccccc2)c2ccccc2)C1` [An_1999/4_(R)-15], the pIC50 was 5.889.
Take `Cc1ccccc1/C(=C/COCCN1CCC[C@@H](C(=O)O)C1)c1ccccc1` [An_1999/4_(R)-22, O(CCN1C[C@@H](CCC1)C(O)=O)C\C=C(\c1ccccc1C)/c1ccccc1]: the pIC50 is listed as 6.62.
In the case of `O=C(O)[C@@H]1CCCN(CCOCC=C(c2ccc(Cl)cc2)c2ccc(Cl)cc2)C1` [An_1999/4_(R)-25, Clc1ccc(cc1)\C(=C\COCCN1C[C@@H](CCC1)C(O)=O)\c1ccc(Cl)cc1], the pIC50 is 6.018.
For `O=C(O)[C@@H]1CCCN(CCCCN(c2ccccc2)c2ccccc2)C1` [An_1999/4_(R)-11, OC(=O)[C@@H]1CCCN(C1)CCCCN(c1ccccc1)c1ccccc1], the pIC50 is given as 5.585.

The data set is the same for the next values; noted with them: literature data set; ref 10.1021/jm981027k; cited from earlier work.
As for `O=C(O)[C@@H]1CCCN(CCO/N=C(/c2cccc(F)c2)c2ccccc2F)C1` [An_1999/3_75, Fc1ccccc1\C(=N/OCCN1C[C@@H](CCC1)C(O)=O)\c1cc(F)ccc1], the pIC50 is 6.658.
As for `O=C(O)[C@@H]1CCCN(CCON=C(c2ccccc2Cl)c2ccccc2Cl)C1` [An_1999/3_74, Clc1ccccc1\C(=N\OCCN1C[C@@H](CCC1)C(O)=O)\c1ccccc1Cl], the pIC50 was 7.398.
In the case of `CN1CCC[C@@H]1/C(=N\OCCN1CCC[C@@H](C(=O)O)C1)c1ccccc1` [An_1999/3_95, O(\N=C(/[C@@H]1N(CCC1)C)\c1ccccc1)CCN1C[C@@H](CCC1)C(O)=O], the pIC50 was 7.222.
As to `O=C(O)[C@@H]1CCCN(CCOC=C(c2ccc(F)cc2F)c2ccc(F)cc2F)C1` [An_1999/3_79, Fc1cc(F)ccc1\C(=C\OCCN1C[C@@H](CCC1)C(O)=O)\c1ccc(F)cc1F], the negative-log IC50 (pIC50) is reported as 6.886.
As to `Cc1ccccc1/C(=N\OCCN1CCC[C@H](C(=O)O)C1)c1sccc1C` [An_1999/3_83, s1ccc(C)c1/C(=N/OCCN1C[C@H](CCC1)C(O)=O)/c1ccccc1C], the pIC50 is given as 6.886.
As for `O=C(O)[C@@H]1CCCN(CCOC=C(c2cc(F)ccc2F)c2cc(F)ccc2F)C1` [An_1999/3_107, Fc1ccc(F)cc1\C(=C\OCCN1C[C@@H](CCC1)C(O)=O)\c1cc(F)ccc1F], the pIC50 was 6.745.
`Cc1ccccc1C(=NOCCN1CCC[C@H](C(=O)O)C1)c1ccccc1C` [An_1999/3_63, O(\N=C(\c1ccccc1C)/c1ccccc1C)CCN1C[C@H](CCC1)C(O)=O]: the pIC50 is 6.886.
As for `O=C(O)C1=CCCN(CCOC=C(c2cccc(F)c2)c2cccc(F)c2)C1` [An_1999/3_105, Fc1cc(ccc1)\C(=C\OCCN1CC(=CCC1)C(O)=O)\c1cc(F)ccc1], the pIC50 is 6.456.
As for `Cc1ccccc1/C(=C/OCCN1CCC[C@@H](C(=O)O)C1)c1cccc(F)c1` [An_1999/3_76, Fc1cc(ccc1)/C(=C\OCCN1C[C@@H](CCC1)C(O)=O)/c1ccccc1C], the negative-log IC50 (pIC50) is recorded as 7.301.
Take `O=C(O)[C@@H]1CCCN(CCOC=C(c2ccccc2Cl)c2ccccc2Cl)C1` [An_1999/3_109, Clc1ccccc1\C(=C\OCCN1C[C@@H](CCC1)C(O)=O)\c1ccccc1Cl]: the pIC50 is recorded as 7.301.
As to `Cc1ccccc1/C(=N\OCCN1CCC[C@@H](C(=O)O)C1)c1ccccc1Cl` [An_1999/3_90, Clc1ccccc1/C(=N/OCCN1C[C@@H](CCC1)C(O)=O)/c1ccccc1C], the pIC50 is given as 6.699.
As to `Cc1cc(Cl)ccc1/C(=N/OCCN1CCC[C@@H](C(=O)O)C1)c1sccc1C` [An_1999/3_84, Clc1cc(C)c(cc1)\C(=N\OCCN1C[C@@H](CCC1)C(O)=O)\c1sccc1C], the pIC50 is listed as 7.046.
As to `Cc1cc(F)ccc1C(=COCCN1CCC[C@@H](C(=O)O)C1)c1ccc(F)cc1C` [An_1999/3_77, Fc1cc(C)c(cc1)\C(=C\OCCN1C[C@@H](CCC1)C(O)=O)\c1ccc(F)cc1C], the pIC50 is on record as 7.222.
With `Cc1ccsc1C(=COCCN1CCC[C@@H](C(=O)O)C1)c1sccc1C` [compound 6, s1ccc(C)c1\C(=C\OCCN1C[C@@H](CCC1)C(O)=O)\c1sccc1C], the pIC50 is 7.854.
On to `O=C(O)[C@@H]1CCCN(CCO/N=C(\c2ccc(F)cc2F)c2cc(F)ccc2F)C1` [An_1999/3_67, Fc1cc(F)ccc1/C(=N\OCCN1C[C@@H](CCC1)C(O)=O)/c1cc(F)ccc1F], for which the pIC50 is 7.301.
Consider `Cc1ccsc1/C(=N\OCCN1CCC[C@@H](C(=O)O)C1)c1cccs1` [An_1999/3_81, s1ccc(C)c1\C(=N/OCCN1C[C@@H](CCC1)C(O)=O)\c1sccc1], for which the pIC50 is on record as 7.155.
Regarding `Cc1ccccc1/C(=C/OCCN1CCC=C(C(=O)O)C1)c1cccc(Cl)c1` [An_1999/3_78, Clc1cc(ccc1)/C(=C\OCCN1CC(=CCC1)C(O)=O)/c1ccccc1C], the pIC50 is listed as 7.222.
As for `Cc1csc(/C(=N/OCCN2CCC[C@@H](C(=O)O)C2)c2ccccc2C)c1` [An_1999/3_20, s1cc(cc1/C(=N/OCCN1C[C@@H](CCC1)C(O)=O)/c1ccccc1C)C], the pIC50 is 6.108.
Regarding `Cc1csc(/C(=N\OCCN2CCC[C@@H](C(=O)O)C2)c2ccccc2C)c1` [An_1999/3_22, s1cc(cc1/C(=N\OCCN1C[C@@H](CCC1)C(O)=O)/c1ccccc1C)C], the pIC50 is listed as 6.585.
Turning to `Cc1ccsc1/C(=N\OCCN1CCC[C@@H](C(=O)O)C1)c1ccc(Cl)cc1Cl` [An_1999/3_85, Clc1cc(Cl)ccc1\C(=N\OCCN1C[C@@H](CCC1)C(O)=O)\c1sccc1C], the pIC50 is 7.523.
On to `Cc1csc(/C(=N\OCCN2CCC[C@H](C(=O)O)C2)c2ccccc2C)c1` [An_1999/3_23, s1cc(cc1/C(=N\OCCN1C[C@H](CCC1)C(O)=O)/c1ccccc1C)C], for which the pIC50 is given as 5.917.

Still in this data set, the particulars now being: literature data set; ref 10.1021/jm990513k; cited from earlier work.
For `O=C(O)[C@H]1CCCN(CCOCCN2c3ccccc3Sc3ccc(C(F)(F)F)cc32)C1` [An_2001/5_22, S1c2c(N(c3c1cccc3)CCOCCN1C[C@H](CCC1)C(O)=O)cc(cc2)C(F)(F)F], the pIC50 is given as 6.979.
`O=C(O)[C@@H]1CCCN(CCOCCN2c3ccccc3CCc3ccc(F)cc32)C1` [An_2001/5_29, Fc1cc2N(c3c(CCc2cc1)cccc3)CCOCCN1C[C@@H](CCC1)C(O)=O]: the pIC50 was 6.577.
Regarding `O=C(O)[C@@H]1CCCN(CCOCCN2c3ccccc3CCc3ccccc32)C1` [An_2001/5_23, O(CCN1C[C@@H](CCC1)C(O)=O)CCN1c2c(CCc3c1cccc3)cccc2], the pIC50 was 6.745.
`O=C(O)[C@@H]1CCCN(CCOC=C2c3ccccc3CCc3ccccc32)C1` [An_2001/5_18, O(\C=C/1\c2c(CCc3c\1cccc3)cccc2)CCN1C[C@@H](CCC1)C(O)=O]: the pIC50 was 5.662.
Consider `O=C(O)[C@@H]1CCCN(CCOCCN2c3ccccc3C=Cc3ccccc32)C1` [An_2001/5_26, O(CCN1C[C@@H](CCC1)C(O)=O)CCN1c2c(C=Cc3c1cccc3)cccc2], for which the pIC50 is recorded as 6.187.
